Where no end group is shown, it is not given here. Where only a bound is given, the exact number is not on record here.

The target of the test is MHC II molecules. Nature of the test: MHC/peptide competition binding assay with a radiolabelled known MHC binding peptide. The note with it: purified MHC, incubation 2-4 days, non-binding defined as IC50≥30,000 nM. The protocol:
Measurement of MHC/peptide interactions: Computational prediction algorithm was used to generate a list of putative non-binding peptides. Those peptides were synthesized and binding to MHC was measured as described in Sidney J et al, 2013.
Briefly, competition assays using different concentrations of WT and modified gluten peptides are conducted by diluting the peptides in NP40 buffer, and incubation for 2-4 days with purified MHC and a radiolabelled known MHC binding peptide. MHC II molecules are purified by affinity chromatography, and peptides are radiolabeled using the chloramine T method. After an incubation period, the bound and unbound radiolabeled species are separated, and their relative amounts are determined by either size-exclusion gel-filtration chromatography or monoclonal antibody capture of MHC. The percent of bound radioactivity is then determined. For each modified peptide, IC50 values of WT and modified peptide are calculated. The validated gluten peptide epitopes are analyzed for MHC binding as a positive control. Some of the peptides are tested also in a deamidated form.
For the sequence FPPQPHPFPPQPQPF [Variant P3h], the IC50 is above 40 µM.
The same measure for HLPGPQPHLSYPQPH [Variant P2e]: above 40 µM; for LQLQPFPQPHLFPPQ [Variant P1c]: 38.6 µM.
The same measure for LQLQPFPQPPLPYGQ [Variant P1e]: 30.7 µM; for PGGQPHLPGGQPQPF [Variant P3g]: above 40 µM.
The same measure for PQPFPPLPYPQPQSF [Variant P3i]: above 40 µM; for PYSQPHRPYHQPQPF [Variant P3e]: above 40 µM; for QLPYSQPHRPYHQPQ [Variant P2d]: above 40 µM.
As to SLPMPQPSLRYRQPS [Variant P2i], the IC50 is above 40 µM.
In turn, TLPSPQPTLGYGQPT [Variant P2h] yielded an IC50 above 40 µM.

The values above are taken from US12552844B2, “De-epitoped alpha gliadin and use of same for the management of celiac disease and gluten sensitivity” (Ukko Inc., priority 2019, dated 2026).
